How the values were obtained:
Adenosylhomocysteinase [1] = molecular target: T1, Adenosylhomocysteinase (Homo sapiens, UniProt P23526); test: The kinetic constant for inhibition of S-adenosyl-homocysteine hydrolase by the compound
Target sequence in this assay (P23526 whole entry): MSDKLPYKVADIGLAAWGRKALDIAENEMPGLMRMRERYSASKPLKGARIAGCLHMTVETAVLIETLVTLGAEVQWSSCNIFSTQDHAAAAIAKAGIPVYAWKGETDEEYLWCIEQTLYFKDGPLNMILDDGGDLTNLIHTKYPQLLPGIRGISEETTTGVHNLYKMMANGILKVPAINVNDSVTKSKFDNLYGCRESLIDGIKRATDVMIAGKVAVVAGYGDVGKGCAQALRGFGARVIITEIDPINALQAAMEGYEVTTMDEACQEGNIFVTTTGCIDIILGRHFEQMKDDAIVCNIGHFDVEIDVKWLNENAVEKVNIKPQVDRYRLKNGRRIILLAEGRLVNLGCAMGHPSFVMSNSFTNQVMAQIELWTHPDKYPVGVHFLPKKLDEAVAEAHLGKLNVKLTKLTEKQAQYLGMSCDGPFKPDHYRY

[2] = Ratio of Kinact value to that of Ki value
Adenosylhomocysteinase [3] = molecular target: T1, Adenosylhomocysteinase; test: The kinetic constant for inhibition of S-adenosyl-homocysteine hydrolase obtained from human placenta by the compound
Target sequence in this assay (P23526 2-432 limits assumed): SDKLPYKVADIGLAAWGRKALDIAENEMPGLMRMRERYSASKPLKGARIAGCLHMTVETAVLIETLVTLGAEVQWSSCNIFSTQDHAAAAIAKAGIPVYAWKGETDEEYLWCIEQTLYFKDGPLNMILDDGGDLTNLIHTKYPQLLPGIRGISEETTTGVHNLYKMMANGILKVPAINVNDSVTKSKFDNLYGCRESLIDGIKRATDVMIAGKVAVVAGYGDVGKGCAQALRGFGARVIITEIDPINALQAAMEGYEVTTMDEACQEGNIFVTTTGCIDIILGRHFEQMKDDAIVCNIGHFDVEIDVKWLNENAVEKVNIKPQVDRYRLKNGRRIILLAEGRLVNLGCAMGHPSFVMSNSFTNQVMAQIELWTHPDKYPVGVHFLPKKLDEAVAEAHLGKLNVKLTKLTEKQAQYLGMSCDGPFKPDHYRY

Row | Ki (Adenosylhomocysteinase [1]) | K inact/Ki [2] | K inact (Adenosylhomocysteinase [3]) | Structure (SMILES)
1 | 3.1 µM | 193 M⁻¹ s⁻¹ | 0.036 min⁻¹ | Nc1ncnc2c1ncn2C1O[C@H](C=C(Br)Br)[C@@H](O)[C@H]1O (some centres undefined)
2 | 3.9 µM | 170 M⁻¹ s⁻¹ | 0.04 min⁻¹ | Nc1ncnc2c1ncn2C1O[C@H](/C=C(/F)Br)[C@@H](O)[C@H]1O (some centres undefined)
3 | 3.6 µM | 375 M⁻¹ s⁻¹ | 0.081 min⁻¹ | Nc1ncnc2c1ncn2C1O[C@H](/C(Br)=C\Br)[C@@H](O)[C@H]1O (some centres undefined)

Source: ChEMBL document CHEMBL1131055, “Discovery of type II (covalent) inactivation of S-adenosyl-L-homocysteine hydrolase involving its "hydrolytic activity": synthesis and evaluation of dihalohomovinyl nucleoside analogues derived from adenosine” (J Med Chem, 1998)
